For 15 molecules, IC50 and inhibition results are on record in patent US8673890B2, “2,3-dihydro-1H-isoindol-1-imine derivatives useful as thrombin PAR-1 receptor antagonist” (Janssen Pharmaceutica NV, priority 2009, dated 2014).

For assay [1], the target named is T1, thrombin receptor (PAR-1) (Homo sapiens, UniProt P25116).
T1 construct: Human aortic smooth muscle cells (HSMC) were purchased from Cascade Biologics; host or cells: human aortic smooth muscle cells (HSMC)
T1 sequence (P25116 22-425): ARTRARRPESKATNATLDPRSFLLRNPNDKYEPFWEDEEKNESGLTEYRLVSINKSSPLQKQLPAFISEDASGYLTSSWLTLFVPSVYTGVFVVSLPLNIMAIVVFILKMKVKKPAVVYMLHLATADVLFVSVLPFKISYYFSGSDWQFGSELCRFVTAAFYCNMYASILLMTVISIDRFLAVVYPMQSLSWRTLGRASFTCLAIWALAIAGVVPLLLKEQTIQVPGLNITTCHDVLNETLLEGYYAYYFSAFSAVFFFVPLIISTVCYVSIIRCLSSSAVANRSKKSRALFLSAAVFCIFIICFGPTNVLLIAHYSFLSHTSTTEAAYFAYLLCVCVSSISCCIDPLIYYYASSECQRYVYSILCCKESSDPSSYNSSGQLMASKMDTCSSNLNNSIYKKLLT
The experiment in a line: FLIPR-based calcium-flux assay with human smooth muscle cells (Har peptide agonist). The following applies: HSMC; 30 nM Har (PAR1) peptide agonist; 80-min drug incubation; multiple values = individual measurements. In kind it is cell-based. As to the method: Human aortic smooth muscle cells (HSMC) were purchased from Cascade Biologics (Portland, Oreg.) and cultured in M-231 containing smooth muscle cell growth supplement and 1× Antibiotic-Antimycotic.
To determine agonist concentration for compound testing: On the day prior to the assay, 100 μL of cells (2×10^5/mL) were seeded in clear, flat-bottom black-wall, tissue culture treated polystyrene 96-well plates and incubated at 37° C., 5% CO2. On the day of the assay, 50 μL of complete dye loading solution (FLIPR Calcium 3 Kit, Molecular Devices) was added to each well containing 100 μL of culture media. The cells were incubated for 30-45 min at 37° C., in 5% CO2 before initiating the assay on the FLIPR. The agonist effect of PAR1 peptide (S-(p-F-Phe)-Har-L-Har-KY-NH2; Har=homoarginine; referred to herein as “Har” peptide) was tested and the EC50 was determined. The EC60-70 dose was used (30 nM) for compound testing.
Compound testing: On the day prior to the assay, 90 μL of cells (2.2×10^5/mL) were seeded in clear, flat-bottom black-wall, tissue culture treated polystyrene 96-well plates and incubated at 37° C., 5% CO2. On the day of the assay, the test compounds were prepared at 10× in 3% DMSO Hanks buffer and 10 μL was added to each well (final DMSO concentration of 0.3%). The cells were incubated 20 min at 37° C., 5% CO2. Culture medium containing testing compounds was dumped and the cells were washed four times with DPBS containing 0.1% of BSA and re-fed with 80 μL of growth medium. 70 μL of BD (fluorescent) dye was loaded to the cells and incubated 45 min at 37° C. incubator. The plates were equilibrated to room temperature for 15 min. 4× PAR1 peptide (30 nM final concentration) agonist plate and the cell plate were placed in FLIPR's assay chamber. 50 μL agonist was added to the cells and data was recorded for 5 min. Raw fluorescence data was exported for each well and tabulated versus time within an ASCII file. Data was then imported into Excel® and the peak response over basal level was determined. The percent inhibition for each test compound was calculated by the changes of fluorescent density as a % inhibition of the control Har peptide response to obtain an IC50.
Representative compounds of the present invention were tested according to the procedure described in Biological Example 1 above, with results in Table 8 below. In Table 8 below, where multiple values are listed for a particular compound, said numbers represent individual measurements (tests) for said compound.

Assay [2] deals with washed platelets. In words: Har peptide-induced platelet aggregation in washed platelets. In kind it is cell-based. The following applies: Homo sapiens. The method, then:
(§1) Platelet aggregation studies were performed according to the method of Bednar et al. (Bednar, B., Condra, C., Gould, R. J., and Connolly, T. M., Thromb. Res., 77:453-463 (1995)). Platelet-rich plasma (PRP) concentrates prepared from healthy volunteers who were aspirin free for at least 7 days by venipuncture using ACD-A as anticoagulant was purchased from Biological Specialties, Inc. (Colmar, Pa.). PRP was centrifuged at 730 g for 15 min. The platelet pellet was washed twice in CGS buffer (13 mM sodium citrate, 30 mM glucose, 120 mM NaCl, pH 6.5) containing 1 U/ml apyrase (grade V, Sigma-Aldrich, St. Louis, Mo.), 1 mM EGTA, and re-suspended in Tyrode's buffer (140 mM NaCl, 2.7 mM KCl, 12 mM NaHCO3, 0.76 mM Na2HPO4, 5.5 mM dextrose, 5.0 mM HEPES, 0.2% BSA, pH 7.4). The platelets were diluted to 3×10^8 platelets/ml and kept >45 min at 37° C. before use. 105 μl of washed platelets, 2 mM CaCl2 and […] of fibrinogen (for PAR-1 peptide-induced platelet aggregation only) were added to a 96-well microliter plate. Platelet aggregation was initiated by the addition of serial concentrations of Har peptide or thrombin (Alpha; American Diagnostica, Cat. # 470HT, 2,500 NIH Units/mg). Buffer was added to one set of control wells. The assay plate was stirred constantly and intermittently placed in a microplate reader (Softmax, Molecular Devices, Menlo Park, Calif.) to read optical density (650 nm) at 0 and 5 minutes after the addition of the compound solutions. Aggregation was calculated as the decrease in optical density between the time 0- and 5-min measurements and expressed as % of aggregation.
(§2) For the inhibition assay, platelet aggregation measurements were conducted as described, with the additional step of test compound addition. Compounds were prepared in 100% DMSO and stored. On the day of the experiment, the compounds were diluted in the Tyrode's buffer containing 3% of DMSO as a 10× working solution. 15 μl of test compound solutions were added to 105 μl of platelets 5 min prior to CaCl2 and fibrinogen additions. Platelet aggregation was initiated by the addition of agonist shown to achieve 60-70% aggregation. Antagonist potency was estimated as a % inhibition of the control Har peptide or thrombin response to obtain an IC50.
(§3) Representative compounds of the present invention were tested according to the procedure described in Biological Example 2 above, with results in Table 9 below. In Table 9 where multiple values are listed for a particular compound, said numbers represent individual measurements (tests) for said compound.

Assay [3] has as its system washed platelets. In words: Thrombin-induced platelet aggregation in washed platelets. In kind it is cell-based, human. The note with it: Homo sapiens, Platelet. The method, then:
as §1, §2, §3

Assay [4] has as its system platelets in platelet-rich plasma. In words: Har peptide-induced platelet aggregation in platelet-rich plasma. In kind it is cell-based, human. The note with it: for IC50: multiple values = individual measurements; for inhibition at 10 µM: 10 μM compound. As to the method: (§4) The procedure for this assay is similar to that described in Biological Example 2, above. Briefly, platelet aggregation studies were performed according to the method of Bednar et al. (Bednar, B., Condra, C., Gould, R. J., and Connolly, T. M., Thromb. Res., 77:453-463 (1995)). Platelet-rich plasma (PRP) concentrates prepared from healthy volunteers who were aspirin free for at least 7 days by venipuncture using EDTA as anticoagulant was purchased from Biological Specialties, Inc. (Colmar, Pa.). PPP (platelet-poor-plasma) was obtained by centrifugation of PRP at Max (3,000 rpms) for 15 min at room temperature. PRP was diluted to yield platelet count of 300×10^3 platelets/μL with PPP. For thrombin induced platelet aggregation: 118 μL of 500 mM GPRP-NH2 was added to 12 mL of 300×10^3 platelets before using (to clean the fibrinogen in the plasma.) GPRP was added just before the experiment. 15 μL of test compound solutions were added to 120 μL of platelets 5 min prior the agonist additions. Platelet aggregation was initiated by the addition of agonist shown to achieve 60-70% aggregation. Antagonist potency was estimated as a % inhibition of the control Har peptide or thrombin response to obtain an IC50.
(§5) Where multiple values are listed for a particular compound, said numbers represent individual measurements (tests) for said compound.

Assay [5] has the same test system. The experiment in a line: Thrombin-induced platelet aggregation in platelet-rich plasma. In kind it is cell-based, human. The note with it: for IC50: multiple values = individual measurements; for inhibition at 10 µM: 10 μM compound. As to the method:
as §4, §5

“And” between values parts separate entries of the source, which are not always exact repeats. Identical values can stand only once.

For `COc1c(N2CCOCC2)cc(C(=O)CN2Cc3cc4c(cc3C2=N)OCc2ncccc2CO4)cc1C(C)(C)C` [Compound 52], the IC50 (as a rule, the concentration at which inhibition is half-maximal) stood at 0.025 µM in assay [1], 0.172 µM with washed platelets [2] and 0.282 µM in the assay with washed platelets [3].
`CC(C)(C)c1cc(C(=O)CN2Cc3cc4c(cc3C2=N)OCc2cccnc2CO4)ccc1O` [Compound 83]: the IC50 in assay [1] is 0.24 µM and 0.35 µM; in assay [4] it was 840 nM and 1750 nM; in assay [5] (Homo sapiens, Platelet), over 10000 nM; in assay [5] it was over 10000 nM.
In the case of `CC(C)(C)c1cc(C(=O)CN2Cc3cc4c(cc3C2=N)OCc2cc([N+](=O)[O-])ccc2CO4)cc(C(C)(C)C)c1O` [Compound 84], the IC50 is 0.029 µM and 0.047 µM and 0.048 µM and 0.011 µM in assay [1]; 2470 nM in assay [4] (Homo sapiens, Platelet); 2510 nM in assay [5] (Homo sapiens, Platelet).
As to `CC(C)(C)c1cc(C(=O)CN2Cc3cc4c(cc3C2=N)OCc2c(F)ccc(F)c2CO4)cc(C(C)(C)C)c1O` [Compound 87], the IC50 in assay [1] was 0.043 µM and 0.02 µM; in assay [4] (Homo sapiens, Platelet), 7380 nM; in assay [4] it was over 10000 nM; in assay [5] (Homo sapiens, Platelet), over 10000 nM; in assay [5] it was over 10000 nM.
With `COc1c(N2CCOCC2)cc(C(=O)CN2Cc3cc4c(cc3C2=N)OCc2c(F)ccc(F)c2CO4)cc1C(C)(C)C` [Compound 88], the IC50 in assay [1] is 0.091 µM and 0.024 µM; in assay [4] (Homo sapiens, Platelet), 1630 nM; in assay [4] it was 1210 nM; in assay [5] (Homo sapiens, Platelet), 3550 nM; in assay [5], 2660 nM.
As for `COc1c(N2CCOCC2)cc(C(=O)CN2Cc3cc4c(cc3C2=N)OCc2cc(F)c(F)cc2CO4)cc1C(C)(C)C` [Compound 89], the IC50 was 0.29 µM and 0.13 µM in assay [1]; 1280 nM in assay [4] (Homo sapiens, Platelet); 2310 nM in assay [4]; 4880 nM in assay [5] (Homo sapiens, Platelet); 4610 nM and 6020 nM in assay [5].
Turning to `COc1c(N2CCOCC2)cc(C(=O)CN2Cc3cc4c(cc3C2=N)OCC(F)(F)C(F)(F)CO4)cc1C(C)(C)C` [Compound 90, 1-(3-tert-butyl-4-methoxy-5-morpholinophenyl)-2-(3,3,4,4-tetrafluoro-8-imino-4,5-dihydro-2H-[1,4]-dioxocino[2,3-f]isoindol-9(3H,8H,10H)-yl)ethanone], the IC50 was 0.68 µM and 0.2 µM and 0.57 µM in assay [1]; 2560 nM in assay [4] (Homo sapiens, Platelet); 4450 nM in assay [4]; over 10000 nM in assay [5] (Homo sapiens, Platelet). In assay [5] (Homo sapiens), 10 µM produced 30% inhibition.
As for `CC(C)(C)c1cc(C(=O)CN2Cc3cc4c(cc3C2=N)OCC(F)(F)C(F)(F)CO4)cc(C(C)(C)C)c1O` [Compound 91], the IC50 is 0.39 µM and 0.07 µM and 0.19 µM in assay [1]; 12900 nM in assay [4] (Homo sapiens, Platelet); over 10000 nM in assay [5] (Homo sapiens, Platelet); over 10000 nM in assay [5]. Also, 10 µM produced 26% inhibition in assay [4] (Homo sapiens).
As to `COc1c(N2CCOCC2)cc(C(=O)CN2Cc3cc4c(cc3C2=N)OCC(F)(F)CO4)cc1C(C)(C)C` [Compound 92], the IC50 in assay [1] was 0.53 µM and 0.36 µM; in assay [5] (Homo sapiens, Platelet), over 10000 nM; in assay [5] it was over 10000 nM. The inhibition (commonly the share of the control response that was lost under treatment) at 10 µM in assay [4] (Homo sapiens) was 24%.
Turning to `CC(C)(C)c1cc(C(=O)CN2Cc3cc4c(cc3C2=N)OCC(F)(F)CO4)cc(C(C)(C)C)c1O` [Compound 93], the IC50 in assay [1] was 0.27 µM and 0.13 µM; in assay [4] (Homo sapiens, Platelet) it was 2080 nM; in assay [4] it was 3800 nM; in assay [5] (Homo sapiens, Platelet), over 10000 nM; in assay [5], over 10000 nM.
For `CC(C)(C)c1cc(C(=O)CN2Cc3cc4c(c(F)c3C2=N)OCc2ccccc2CO4)cc(C(C)(C)C)c1O` [Compound 96], the IC50 was 0.031 µM and 0.015 µM in assay [1]; 1570 nM in assay [4] (Homo sapiens, Platelet); 2300 nM in assay [4]; 3230 nM in assay [5] (Homo sapiens, Platelet); 3250 nM in assay [5].
In the case of `COc1c(N2CCOCC2)cc(C(=O)CN2Cc3cc4c(cc3C2=N)OC/C=C\CO4)cc1C(C)(C)C` [Compound 97], the IC50 in assay [1] was 0.05 µM and 0.1 µM; in assay [4] (Homo sapiens, Platelet), 1300 nM; in assay [5] (Homo sapiens, Platelet), 2190 nM.
For the molecule `COc1c(N2CCOCC2)cc(C(=O)CN2Cc3cc4c(cc3C2=N)OCc2cc(C)c(C)cc2CO4)cc1C(C)(C)C` [Compound 98], the IC50 in assay [1] was 0.27 µM and > 1 µM; in assay [4] (Homo sapiens, Platelet), over 10000 nM; in assay [5] (Homo sapiens, Platelet), over 10000 nM.
For the molecule `Cc1cc2c(cc1C)COc1cc3c(cc1OC2)CN(CC(=O)c1cc(C(C)(C)C)c(O)c(C(C)(C)C)c1)C3=N` [Compound 99], the IC50 in assay [1] is 0.092 µM and 0.22 µM; in assay [4] (Homo sapiens, Platelet), over 10000 nM. In assay [5] (Homo sapiens), this molecule yielded an inhibition at 10 µM of 23%.
Regarding `CC(C)(C)c1cc(C(=O)CN2Cc3cc4c(cc3C2=N)OC/C=C\CO4)cc(C(C)(C)C)c1O` [Compound 100, (Z)-1-(3,5-di-tert-butyl-4-hydroxyphenyl)-2-(8-imino-2H-[1,4]-dioxocino[2,3-f]isoindol-9(5H,8H,10H)-yl)ethanone], the IC50 in assay [1] was 0.022 µM and 0.027 µM; in assay [4] (Homo sapiens, Platelet) it was 1610 nM; in assay [5] (Homo sapiens, Platelet), 1920 nM.
